SMILES strings stand for the structures. In brackets after ≈: the same amount, converted by molar mass. Entries after “also recorded” stand apart in the source; their conditions may differ. Like-named read-outs stand apart in the source and are kept apart here. Where only a bound is given, the exact number is not on record here.

Data set [1] can be described thus: Hygroscopicity (DVS), water sorption/desorption at 37° C. It is filed as physicochemical. Particulars: for DVS (hygroscopicity): water sorption/desorption isotherms at 37° C., 0-95% RH. How it is done: The hygroscopicity experiments were carried out with a DVS Intrinsic from S.M.S. This technique is designed to accurately measure a sample's change in mass as it sorbs precisely controlled concentrations of water vapors in an air carrier gas. The method used for DVS experiments (at 37° C.) is summarized below. • Equilibrating 10 min at 50% RH • Decreasing to 0% RH in 60 min • Equilibrating 10 min at 0% RH • Increasing to 95% RH in 280 min • Equilibrating 10 min at 95% RH • Decreasing to 50% RH in 100 min • Equilibrating 20 min at 50% RH
The hygroscopic experiments were carried out with a DVS Intrinsic from S.M.S. This technique is designed to accurately measure a sample's change in mass as it sorbs precisely controlled concentrations of water vapors in an air carrier gas. All the methods used for DVS experiments are summarized below. It should be noticed that the temperature and relative humidity (RH) are pre-set according to the initial temperature and RH.
• Equilibrating 120 min at 50% RH • Decreasing to 0% RH in 60 min • Equilibrating 150 min at 0% RH • Increasing to 95% RH in 200 min • Equilibrating 360 min at 95% RH • Decreasing to 50% RH in 100 min • Equilibrating 150 min at 50% RH
The hygroscopicity experiments were carried out with a DVS Intrinsic from S.M.S. This technique is designed to accurately measure a sample's change in mass as it sorbs precisely controlled concentrations of water vapors in an air carrier gas. All the methods used for DVS experiments are summarized below, and it should be noticed that the temperature and relative humidity (RH) are pre-set according to the initial temperature and RH.
The hygroscopicity experiments were carried out with a DVS Intrinsic from S.M.S. This technique is designed to accurately measure a sample's change in mass as it sorbs precisely controlled concentrations of water vapors in an air carrier gas. All the methods used for DVS experiments are summarized below. It should be noticed that the temperature and relative humidity (RH) are pre-set according to the initial temperature and RH.

Data set [2] in a line: XRPD under temperature and relative humidity. It counts as physicochemical. The settings on record: for XRPD under temperature: impact / new crystalline phase: 25 to 100° C., RH set at 30%; for XRPD under relative humidity: impact / new crystalline phase: RH 10 to 80-90% at 40° C.; for Physical stability under the conditions tested (temperature and RH): XRPD, 25-100° C. and 10-90% RH at 40° C. How it is done: Method 1: influence of temperature at ambient RH. RH was set at 30% in order to simulate a RH near from the ambient RH, and the temperature studied were 25-[…]-100° C.
Method 2: influence on RH at 40° C. The RH studied was at 10-30-80%.
These experiments studied the influence of temperature at ambient RH. RH was wet at 30% in order to simulate a RH near from the ambient RH, and the temperatures studied were 25-50-100° C.
These experiments studied the influence on RH at 40° C. The RH studied were 10-30-88%.
Using Method 1, the influence of temperature at ambient RH was studied. RH was set at 30% in order to simulate a RH near from the ambient RH, and the temperatures studied were 25-50-100° C. FIG. 24 provides the XRPD pattern representing the influence of temperature on Compound 1 Form I.
Using Method 2, the influence on RH at 40° C. was studied. The RH studied were 10-30-90%.
Using Method 1, the influence of temperature at ambient RH was studied. RH was set at 30% in order to simulate a RH near from the ambient RH. Temperature studied: 25-50-100° C.
Using Method 2, the influence on RH at 40° C. was studied at 10-30-90%.

The nature of data set [3]: Solubility study of Compound I Form I in various solvents and temperatures. It counts as physicochemical. How it is done: The solubility of Compound 1 Form I was assessed in order to identify potential crystallization media. Compound 1 Form I was found very soluble in dichoromethane even at low temperature (10° C.).
The nature of data set [4]: Solubility in water at 37° C. It is filed as physicochemical. The source says: This compound can be considered as very slightly soluble (<1 g/L).
The conditions of data set [5]: counter-ion, cited from earlier work; for pKa (B): basic function.

Broadly, the solubility is the concentration that dissolves in the medium under given conditions. With `CC1=C(O)C(=O)C=C2C1=CC=C1[C@@]2(C)CC[C@@]2(C)[C@@H]3C[C@](C)(C(=O)O)CC[C@]3(C)CC[C@]12C` [Compound 1 Form I, 3-hydroxy-9β,13α-dimethyl-2-oxo-24,25,26-trinoroleana-1(10),3,5,7-tetraen-29-oic acid], the “Hysteresis observed with the final mass at 50% RH” value in data set [1] (DVS, 37° C.) is listed as “No hysteresis; also recorded: slight hysteresis”. Further, the “Water uptake, water sorption/desorption isotherms” value in data set [1] (DVS, 37° C.) was less than 0.2 % w/w. The “DVS (hygroscopicity)” value in data set [1] is recorded as “non hygroscopic; also recorded: non-hygroscopic”; in data set [1] (listed as Compound I Form I) it was “Non-hygroscopic”; in data set [1] (listed as FI) it was “Not hygroscopic”. In addition, the “XRPD under temperature: impact / new crystalline phase” value was “No impact” in data set [2], “no new crystalline phase until 100 °C” in data set [2] (listed as Compound I Form I) and “=>No new crystalline” in data set [2] (listed as FI). Further, the “XRPD under relative humidity: impact / new crystalline phase” value in data set [2] is recorded as “No impact”; in data set [2] (listed as Compound I Form I), “no new crystalline phase from 10 to 90% RH”; in data set [2] (listed as FI), “=>No new crystalline”. In addition, the “Physical stability under the conditions tested (temperature and RH)” value in data set [2] is reported as “good stability”. Moreover, the solubility was 31 to 40 mg/mL (≈ 68.8 to 88.8 mM) in data set [3] (CH2Cl2/EtOH 20/80, organic solvent or mixture, CH2Cl2-2/EtOH 20/80, 40° C.); less than 2 mg/mL in data set [3] (aqueous with cosolvent or surfactant or cyclodextrin, MeOH/Water 67/33/V, 10° C.); less than 11 mg/mL in data set [3] (aqueous with cosolvent or surfactant or cyclodextrin, Water/EtOH 50/50, 10° C.); less than 11 mg/mL in data set [3] (aqueous with cosolvent or surfactant or cyclodextrin, Water/EtOH 50/50, 25° C.); 8 to 11 mg/mL (≈ 17.8 to 24.4 mM) in data set [3] (methanol, organic solvent or mixture, MeOH, 10° C.); roughly 36 mg/mL (≈ 79.9 mM) in data set [3] (methanol, organic solvent or mixture, MeOH, 50° C.). The solubility in data set [3] (organic solvent or mixture, CH2Cl2, 25° C.) is greater than 120 mg/mL; in data set [3] (organic solvent or mixture, CH2Cl2/EtOH 10/90, 10° C.), 11 to 15 mg/mL (≈ 24.4 to 33.3 mM); in data set [3] (organic solvent or mixture, CH2Cl2/EtOH 10/90, 40° C.), less than 25 mg/mL; in data set [3] (organic solvent or mixture, CH2Cl2/EtOH 30/70, 10° C.), 25 to 45 mg/mL (≈ 55.5 to 99.9 mM); in data set [3] (organic solvent or mixture, CH2Cl2/EtOH 50/50, 10° C.), greater than 40 mg/mL; in data set [3] (organic solvent or mixture, CH2Cl2/EtOH 70/30, 10° C.), greater than 40 mg/mL. For the same compound, the solubility was greater than 40 mg/mL in data set [3] (organic solvent or mixture, CH2Cl2/EtOH 90/10, 10° C.); 9 to 14 mg/mL (≈ 20 to 31.1 mM) in data set [3] (organic solvent or mixture, Ethanol, 25° C.); 20 to 40 mg/mL (≈ 44.4 to 88.8 mM) in data set [3] (organic solvent or mixture, Ethyl acetate, 10° C.); less than 25 mg/mL in data set [3] (organic solvent or mixture, Propan-2-ol, 10° C.); 25 to 40 mg/mL (≈ 55.5 to 88.8 mM) in data set [3] (organic solvent or mixture, Propan-2-ol, 50° C.). Besides, the “Solubility in dichoromethane” value in data set [3] (dichoromethane, even at low temperature (10° C.)) is “very soluble”. In addition, in data set [3] (dichoromethane/ethanol 50:50 (V/V), high temperature), the “Solubility in dichoromethane/ethanol 50:50 (V/V) at high temperature” value is “relatively good solubility”. Moreover, the “Solubility in dichoromethane/ethanol 50:50 (V/V) at low temperature” value in data set [3] (dichoromethane/ethanol 50:50 (V/V), low temperature) is listed as “low solubility”.

With `CC1=C(O)C(=O)C=C2C1=CC=C1[C@@]2(C)CC[C@@]2(C)[C@@H]3C[C@](C)(C(=O)O)CC[C@]3(C)CC[C@]12C` [Compound 1, (2R,4aS,6aS,12bR,14aS,14bR)-10-hydroxy-2,4a,6a,9,12b,14a-hexamethyl-11-oxo-1,2,3,4,4a,5,6,6a,11,12b,13,14,14a,14b-tetradecahydropicene-2-carboxylic acid], the figures for the “Solubility in water at 37° C.” value in data set [4] and in data set [4] (listed as Free compound) were “below 1 g/L” and “(s < 1 g/L)”, respectively. This compound yielded a solubility in data set [4] (37 °C) of less than 1 mg/mL. In data set [1] (DVS, 37° C.), the “Hysteresis with the final mass at 50% RH” value was roughly 0.1 wt-%. The “Mass decrease as the RH was lowered to 0%” value in data set [1] (DVS, 37° C.) was roughly 0.1 % w/w. In addition, the “Mass increase as the RH was increased to 95%” value in data set [1] (DVS, 37° C.) was roughly 0.2 % w/w. In addition, the “Water uptake, water sorption/desorption isotherms” value in data set [1] (DVS, 37° C.) is recorded as less than 0.2 wt-%. Moreover, the “DVS (hygroscopicity)” value is given as “non-hygroscopic” in data set [1], “Non hygroscopic” in data set [1] (listed as Free compound), “Non-hygroscopic” in data set [1] (listed as free Celastrol) and “non hygroscopic” in data set [1] (listed as free compound). For the same compound, the results for the “XRPD under temperature: impact / new crystalline phase” value in data set [2] (listed as Free compound), in data set [2] (listed as free Celastrol) and in data set [2] (listed as free compound) were “=>No new crystalline phase until”, “no new crystalline phase until 100 °C” and “No impact”, respectively. The “XRPD under relative humidity: impact / new crystalline phase” value is on record as “=>No new crystalline phase from” in data set [2] (listed as Free compound), “no new crystalline phase from 10 to 90% RH” in data set [2] (listed as free Celastrol) and “physically stable under relative humidity; also recorded: No impact” in data set [2] (listed as free compound). In data set [2] (listed as free compound), the “Physical stability under the conditions tested (temperature and RH)” value is given as “physically stable”.

On to `CC1=C(O)C(=O)C=C2C1=CC=C1[C@@]2(C)CC[C@@]2(C)[C@@H]3C[C@](C)(C(=O)O)CC[C@]3(C)CC[C@]12C` [Compound 2], for which, in data set [4], the “Solubility in water at 37° C.” value is less than 1.5 mg/mL. In data set [4] (listed as Trometamol salt), the “Solubility in water at 37° C.” value is “(s < 1.5 g/L)”. Besides, in data set [1] (DVS, 37° C.), the “Hysteresis with the final mass at 50% RH” value is given as roughly 3 % w/w; the “Mass decrease as the RH was lowered to 0%” value is reported as roughly 3.8 % w/w; the “Mass increase as the RH was increased to 95%” value is given as 11 % w/w; the “Water uptake, water sorption/desorption isotherms” value is 2 ˜15 % w/w. In data set [1], the “DVS (hygroscopicity)” value is given as “hygropscopic”. Besides, the “DVS (hygroscopicity)” value in data set [1] (listed as Trometamol salt) is on record as “Hygroscopic”. Moreover, in data set [2], the “XRPD under temperature: impact / new crystalline phase” value is “No impact of temperature” and the “XRPD under relative humidity: impact / new crystalline phase” value is listed as “formation of a new crystalline pattern”. Moreover, in data set [2] (listed as Trometamol salt), the “XRPD under temperature: impact / new crystalline phase” value is “=>No new crystalline phase until 100 °C” and the “XRPD under relative humidity: impact / new crystalline phase” value is “less stable physically under relative humidity; also recorded: =>New crystaline phase from 80% RH”.

With `NCCCC[C@H](N)C(=O)O` [L-Lysine], in data set [5] (acid function), the “pKa (A)” value is 2.16. In addition, the “pKa (B)” value in data set [5] is listed as 9.18.

In the case of `NC(CO)(CO)CO` [trometamol, tris(hydroxymethyl)aminomethane], the “pKa (B)” value in data set [5] is on record as 8.2.

The values above are taken from patent publication US20250092086A1, “CELASTROL SALTS, CRYSTALLINE FORMS, AND USES THEREOF” (ERX Pharmaceuticals Inc., priority 2022, published 2025).
